Source: patent publication US9670204B2, “Compounds and pharmaceutical compositions thereof for the treatment of inflammatory disorders” (Galapagos NV, priority 2013, dated 2017)

molecular target: hENPP2 (UniProtKB/SwissProt Q13822) (Homo sapiens (Human), UniProt Q13822); experiment: hENPP2 biochemical assay, LPC as substrate; conditions: LPC (palmitoyl 16:0) as substrate
Protocol: The principle of the assay consists in quantifying the released choline with an enzymatic method using choline oxidase and peroxidase. Choline oxydation by choline oxydase releases betaine and peroxide. The latter is quantified in presence of HRP that converts the peroxide detection agent TOOS and 4-aminoantipyrine into quinoneimine dye. The appearance of quinoneimine dye is measured spectrophotometrically at 555 nm and is proportional to the amount of choline released by ENPP2. Inhibition of ENPP2 will result in a decrease of the signal.
Compound IC50 values are determined in a hENPP2 (UniProtKB/SwissProt Sequence ref Q13822) biochemical assay using LPC as substrate.
The enzyme is diluted in 50 mM Tris-HCl pH 8.5, 500 mM NaCl, 5 mM KCl, 10 mM CaCl2, 0.1% fatty acid free BSA in a total volume of 10 μL. the reaction is started by the addition of 10 μL of 150 μM LPC (palmitoyl 16:0) diluted in the same buffer as described above and the mixture is incubated at 37° C. for 30 min. The reaction is terminated and choline quantified by the addition of a 25 μL of a mixture containing 0.6 U/mL of choline oxidase, 0.6 U/mL of peroxydase, 1.8 mM TOOS, 1.2 mM amino-antipyrine, 20 mM EGTA (stop-developer solution) diluted in the buffer described above. […] is read on the Envision after an incubation of 30 min at room temperature (Excitation 555 nm, excitation light=70%).

Row | SMILES | IC50 [nM]
1 | CCc1nc2ccc(N3CCN(CC(=O)N4CC(F)C4)CC3)cn2c1N(C)c1nc(-c2ccc(F)cc2)cs1 [Compound 28, 2-(4-(2-ethyl-3-((4-(4-fluorophenyl)thiazol-2-yl)(methyl)amino)imidazo[1,2-a]pyridin-6-yl)piperazin-1-yl)-1-(3-fluoroazetidin-1-yl)ethanone] | 100 to 500
2 | CCc1nc2ccc(N3CCN(CC(=O)N4CC(F)(F)C4)CC3)cn2c1N(C)c1nc(-c2ccc(F)cc2)cs1 [Compound 29, 1-(3,3-difluoroazetidin-1-yl)-2-(4-(2-ethyl-3-((4-(4-fluorophenyl)thiazol-2-yl)(methyl)amino)-imidazo[1,2-a]pyridin-6-yl)piperazin-1-yl)ethanone] | 100 to 500
3 | CCc1nc2ccc(N3CCN(CC(=O)N4CCC4)CC3)cn2c1N(C)c1nc(-c2ccc(F)cc2)cs1 [Compound 30, 1-(azetidin-1-yl)-2-(4-(2-ethyl-3-((4-(4-fluorophenyl)thiazol-2-yl)(methyl)amino)imidazo[1,2-a]pyridin-6 yl)piperazin-1-yl)ethanone] | 0.01 to 100
4 | CCc1nc2ccc(N3CCN(CC(=O)N4CCCC4)CC3)cn2c1N(C)c1nc(-c2ccc(F)cc2)cs1 [Compound 31, 2-(4-(2-ethyl-3-((4-(4-fluorophenyl)thiazol-2-yl)(methyl)amino)imidazo[1,2-a]pyridin-6-yl)piperazin-1-yl)-1-(pyrrolidin-1-yl)ethanone] | 0.01 to 100
5 | CCc1nc2ccc(N3CCN(CC(=O)N4CCOCC4)CC3)cn2c1N(C)c1nc(-c2ccc(F)cc2)cs1 [Compound 32, 2-(4-(2-ethyl-3-((4-(4-fluorophenyl)thiazol-2-yl)(methyl)amino)imidazo[1,2-a]pyridin-6-yl)piperazin-1-yl)-1-morpholinoethanone] | 100 to 500
6 | CCc1nc2ccc(N3CCN(CC(N)=O)CC3)cn2c1N(C)c1nc(-c2ccc(F)cc2)cs1 [Compound 33, 2-(4-(2-ethyl-3-((4-(4-fluorophenyl)thiazol-2-yl)(methyl)amino)imidazo[1,2-a]pyridin-6-yl)piperazin-1-yl)acetamide] | 500 to 1000
7 | CCc1nc2ccc(N3CCN(CC(=O)N4CC(CO)C4)CC3)cn2c1N(C)c1nc(-c2ccc(F)cc2)cs1 [Compound 34, 2-(4-(2-ethyl-3-((4-(4-fluorophenyl)thiazol-2-yl)(methyl)amino)imidazo[1,2-a]pyridin-6-yl)piperazin-1-yl)-1-(3-(hydroxymethyl)azetidin-1-yl)ethanone] | 100 to 500
8 | CCOC(=O)C(C)N1CCN(c2ccc3nc(CC)c(N(C)c4nc(-c5ccc(F)cc5)cs4)n3c2)CC1 (centres unmarked) [Compound 37, ethyl 2-(4-(2-ethyl-3-((4-(4-fluorophenyl)thiazol-2-yl)(methyl)amino)imidazo[1,2-a]pyridin-6-yl)piperazin-1-yl)propionoate] | > 1000
9 | CCc1nc2ccc(N3CCN(C(=O)C4CCCN4C(=O)OC(C)(C)C)CC3)cn2c1N(C)c1nc(-c2ccc(F)cc2)cs1 (centres unmarked) [Compound 44, tert-butyl 2-(4-(2-ethyl-3-((4-(4-fluorophenyl)thiazol-2-yl)(methyl)amino)imidazo[1,2-a]pyridin-6-yl)piperazine-1-carbonyl)pyrrolidine-1-carboxylate] | > 1000
10 | CCc1nc2ccc(N3CCN(C(=O)C4CCN(C(=O)OC(C)(C)C)C4)CC3)cn2c1N(C)c1nc(-c2ccc(F)cc2)cs1 (centres unmarked) [Compound 45, tert-butyl 3-(4-(2-ethyl-3-((4-(4-fluorophenyl)thiazol-2-yl)(methyl)amino)imidazo[1,2-a]pyridin-6-yl)piperazine-1-carbonyl)pyrrolidine-1-carboxylate] | > 1000
11 | CCc1nc2ccc(C3=CCN(S(C)(=O)=O)CC3)cn2c1N(C)c1nc(-c2ccc(C(C)(C)C)cc2)cs1 [Compound 70, 4-(4-tert-butylphenyl)-N-(2-ethyl-6-(1-(methylsulfonyl)-1,2,3,6-tetrahydropyridin-4-yl)imidazo[1,2-a]pyridin-3-yl)-N-methylthiazol-2-amine] | > 1000
12 | CCc1nc2ccc(C3=CCN(S(C)(=O)=O)CC3)cn2c1N(C)c1nc(-c2ccc(OC)cc2)cs1 [Compound 71, N-(2-ethyl-6-(1-(methylsulfonyl)-1,2,3,6-tetrahydropyridin-4-yl)imidazo[1,2-a]pyridin-3-yl)-4-(4-methoxyphenyl)-N-methylthiazol-2-amine] | > 1000
13 | CCc1nc2ccc(C3=CCN(S(C)(=O)=O)CC3)cn2c1N(C)c1nc(-c2ccc(F)c(F)c2)cs1 [Compound 73, 4-(3,4-difluorophenyl)-N-(2-ethyl-6-(1-(methylsulfonyl)-1,2,3,6-tetrahydropyridin-4-yl)imidazo[1,2-a]pyridin-3-yl)-N-methylthiazol-2-amine] | > 1000
14 | CCc1nc2ccc(C3CCN(S(C)(=O)=O)CC3)cn2c1N(C)c1nc(-c2ccc(F)c(F)c2)cs1 [Compound 83, 4-(3,4-difluorophenyl)-N-(2-ethyl-6-(1-(methylsulfonyl)piperidin-4-yl)imidazo [1,2-a]pyridin-3-yl)-N-methylthiazol-2-amine] | > 1000
15 | CCc1nc2ccc(C3CCN(S(C)(=O)=O)CC3)cn2c1N(C)c1nc(-c2ccc(C(F)(F)F)cc2)cs1 [Compound 84, N-(2-ethyl-6-(1-(methylsulfonyl)piperidin-4-yl)imidazo [1,2-a]pyridin-3-yl)-N-methyl-4-(4-(trifluoromethyl)phenyl) thiazol-2-amine] | > 1000
16 | CCc1nc2ccc(C3CCN(S(C)(=O)=O)CC3)cn2c1N(C)c1nc(-c2ccc(OC(F)(F)F)cc2)cs1 [Compound 85, N-(2-ethyl-6-(1-(methylsulfonyl)piperidin-4-yl)imidazo [1,2-a]pyridin-3-yl)-N-methyl-4-(4-(trifluoromethoxy)phenyl)thiazol-2-amine] | > 1000
17 | CCc1nc2ccc(C3CCN(S(C)(=O)=O)CC3)cn2c1N(C)c1nc(-c2ccc(F)cc2C#N)c(C)s1 [Compound 97, 2-(2-((2-ethyl-6-(1-(methylsulfonyl)piperidin-4-yl)imidazo [1,2-a]pyridin-3-yl)(methyl)amino)-5-methylthiazol-4-yl)-5-fluorobenzonitrile] | 100 to 500
18 | [2H]C([2H])([2H])N(c1nc(-c2ccc(F)cc2)cs1)c1c(CC)nc2ccc(C3CCN(S(C)(=O)=O)CC3)cn12 [Compound 102, 4-(4-fluorophenyl)-N-(2-ethyl-6-(1-(methylsulfonyl)piperidin-4-yl)imidazo [1,2-a]pyridin-3-yl)-N-(d3-methyl)thiazol-2-amine] | > 1000
19 | CCc1nc2ccc(C3CCN(S(C)(=O)=O)CC3)cn2c1N(C)c1nc(-c2ccc(F)cc2)c(C(=O)OC)s1 [Compound 104, methyl 2-((2-ethyl-6-(1-(methylsulfonyl)piperidin-4-yl)imidazo [1,2-a]pyridin-3-yl)(methyl)amino)-4-(4-fluorophenyl)thiazole-5-carboxylate] | > 1000
20 | CCc1nc2ccc(C3CCN(S(C)(=O)=O)CC3)cn2c1N(C)c1nc(-c2ccc(F)cc2CO)cs1 [Compound 107, (2-(2-((2-ethyl-6-(1-(methylsulfonyl)piperidin-4-yl)imidazo[1,2-a]pyridin-3-yl)(methyl)amino)thiazol-4-yl)-5-fluorophenyl)methanol] | 500 to 1000
21 | CCc1nc2ccc(C3CCN(CC(=O)N4CCC(CO)C4)CC3)cn2c1N(C)c1nc(-c2ccc(F)cc2)cs1 (centres unmarked) [Compound 117, 2-(4-(2-ethyl-3-((4-(4-fluorophenyl)thiazol-2-yl)(methyl)amino)imidazo[1,2-a]pyridin-6-yl)piperidin-1-yl)-1-(3-(hydroxymethyl)pyrrolidin-1-yl)ethanone] | 100 to 500
22 | CCc1nc2ccc(C3CCN(CC(=O)N(C)CCO)CC3)cn2c1N(C)c1nc(-c2ccc(F)cc2)cs1 [Compound 119, 2-(4-(2-ethyl-3-((4-(4-fluorophenyl)thiazol-2-yl)(methyl)amino)imidazo[1,2-a]pyridin-6-yl)piperidin-1-yl)-N-(2-hydroxyethyl)-N-methylacetamide] | 500 to 1000
23 | CCc1nc2ccc(C3CCN(CC(=O)N(C)CC#N)CC3)cn2c1N(C)c1nc(-c2ccc(F)cc2)cs1 [Compound 121, N-(cyanomethyl)-2-(4-(2-ethyl-3-((4-(4-fluorophenyl)thiazol-2-yl)(methyl)amino)imidazo[1,2-a]pyridin-6-yl)piperidin-1-yl)-N-methylacetamide] | 500 to 1000
24 | CCc1nc2ccc(C3CCN(CC4CNC(=O)O4)CC3)cn2c1N(C)c1nc(-c2ccc(F)cc2)cs1 (centres unmarked) [Compound 122, 5-((4-(2-ethyl-3-((4-(4-fluorophenyl)thiazol-2-yl)(methyl)amino)imidazo[1,2-a]pyridin-6-yl)piperidin-1-yl)methyl)oxazolidin-2-one] | 500 to 1000
25 | CCc1nc2ccc(C3CCN(CC(=O)NCCCO)CC3)cn2c1N(C)c1nc(-c2ccc(F)cc2)cs1 [Compound 123, 2-(4-(2-ethyl-3-((4-(4-fluorophenyl)thiazol-2-yl)(methyl)amino)imidazo[1,2-a]pyridin-6-yl)piperidin-1-yl)-N-(3-hydroxypropyl)acetamide] | > 1000
26 | CCc1nc2ccc(C3CCN(C(=O)CNC)CC3)cn2c1N(C)c1nc(-c2ccc(F)cc2)cs1 [Compound 127, 1-(4-(2-ethyl-3-((4-(4-fluorophenyl)thiazol-2-yl)(methyl)amino)imidazo[1,2-a]pyridin-6-yl)piperidin-1-yl)-2-(methylamino)ethanone] | 500 to 1000
